# Target: HCV NS5b RNA dependent RNA polymerase (Hepatitis C virus genotype 1a, UniProt P27958)
# Assay: HCV NS5b RNA dependent RNA polymerase inhibition (scintillation proximity assay)
# Format: biochemical
# Conditions: not given
# Protocol: Compounds of the present invention are evaluated for inhibition of HCV NS5b RNA dependent RNA polymerase activity in assays comprised of a suitable buffer (e.g. 20 mM Tris-HCl pH 7.6), primed or unprimed RNA templates, GTP, ATP, CTP, and UTP, MnCl2 or MgCl2, and reducing agent such as 10 mM dithiothreitol or 2-mercaptoethanol. The assay buffer may contain salts such as ammonium acetate, KCl, or NaCl, and nonionic or zwitterionic detergents such as Tween or CHAPS. The incorporation of nucleotides into the complementary RNA strand may be monitored by the incorporation of radiolabeled NTP (e.g. ^3H labeled GTP). Suitable RNA templates for de novo initiation in the presence of 20–50 μM GTP or ATP are the homopolymers poly rC and poly rU, respectively. Heteropolymer RNA templates with 1–3 cytidine (C) bases or 1–3 uridine (U) bases at the 3′ terminus of the template may also be used for de novo initiation. Primed RNA templates such as poly rC primed with oligo rG or oligo dG, and poly rA primed with oligo rU may also be used to detect polymerase activity. The primers may be any length greater than 10 bases. A biotin residue may be added to the 5′ end of the template or the 5′ end of the primer to capture the template and the newly synthesized, complementary strand on avidin coated spheres. One embodiment of this technology consists of a mixture of NS5b polymerase, a poly rC RNA template primed with 5′ biotinylated oligo rG, 20 mM Tris HCl pH 7.6, 100 mM ammonium acetate, 10 mM dithiothreitol, 2 mM CHAPS, 1 mM MgCl2, and 150–200 nM ^3H labeled GTP. Test compounds (inhibitors) may be incorporated in the reaction mixture with up to 10% DMSO. The reaction is run for various times (1–180 minutes) at 22–37° C., and stopped by the addition of 10–140 mM EDTA. Scintillation Proximity Assay avidin-coated beads (Amersham Pharmacia Biotech) are added to capture the ds RNA product; or the reaction mixtures may be transferred to avidin coated Flash Plates (Perkin Elmer Life Sciences). The incorporation of radiolabeled GTP into the complementary strand is measured in 96, 384, or 1536 well plates in scintillation counters such as the Wallac Microbeta and Packard TopCount.
# Sequence of HCV NS5b RNA dependent RNA polymerase (P27958 2421-3011): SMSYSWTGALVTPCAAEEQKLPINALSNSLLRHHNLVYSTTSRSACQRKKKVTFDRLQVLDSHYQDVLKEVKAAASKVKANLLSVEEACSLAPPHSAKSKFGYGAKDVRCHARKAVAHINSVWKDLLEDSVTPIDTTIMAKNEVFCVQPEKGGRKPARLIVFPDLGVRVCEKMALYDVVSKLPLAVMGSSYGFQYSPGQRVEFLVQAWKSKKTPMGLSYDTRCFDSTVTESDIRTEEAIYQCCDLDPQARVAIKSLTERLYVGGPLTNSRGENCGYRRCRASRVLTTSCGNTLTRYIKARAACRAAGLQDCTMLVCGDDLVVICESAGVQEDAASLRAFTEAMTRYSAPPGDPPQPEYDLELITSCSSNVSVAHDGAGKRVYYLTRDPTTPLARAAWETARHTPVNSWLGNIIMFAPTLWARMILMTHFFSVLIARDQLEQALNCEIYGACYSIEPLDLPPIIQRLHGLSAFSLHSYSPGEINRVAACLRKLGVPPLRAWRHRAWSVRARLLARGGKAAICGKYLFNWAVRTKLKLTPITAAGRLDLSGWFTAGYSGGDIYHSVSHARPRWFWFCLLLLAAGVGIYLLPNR
row,Structure (SMILES),IC50 [µM]
1,Cc1ccccc1-c1ccc(/C=C(\NC(=O)c2ccccc2)C(=O)O)o1 [Compound 2],< 10

# Same assay, conditions: concentration for 50% inhibition, class symbols; read-out: NS5B Inhibitory Activity
row,Structure (SMILES),IC50 [µM]
1,Cc1ccc(COc2ccc(/C=C(\NC(=O)c3ccccc3)C(=O)O)cc2)cc1 [Compound 3],11 to 30
2,O=C(O)/C(=C/c1ccc(-c2ccc3c(c2)OCO3)o1)NC(=O)c1ccccc1 [Compound 4],< 10
3,O=C(O)/C(=C/c1ccc(-c2cc3ccccc3s2)o1)NC(=O)c1ccccc1 [Compound 5],11 to 30
4,O=C(O)/C(=C/c1ccc(F)c(-c2ccccc2Cl)c1)NC(=O)c1ccccc1 [Compound 8],< 10
5,O=C(O)/C(=C/c1ncc(-c2ccccc2)o1)NC(=O)c1ccccc1 [Compound 10],< 10

# Results, then the compound that gave them:
row,IC50 [µM],Structure (SMILES)
1,< 10,O=C(O)/C(=C/c1cccc(Oc2ccccc2Cl)c1)NC(=O)c1ccccc1 [Compound 1]
2,11 to 30,O=C(O)/C(=C/c1ccc(Nc2ccccc2Cl)cc1)NC(=O)c1ccccc1 [Compound 6]
3,> 30,CCS(=O)(=O)c1ccc(-c2ccc(/C=C(\NC(=O)c3ccccc3)C(=O)O)o2)cc1 [Compound 7]
4,< 10,O=C(O)/C(=C/c1csc(-c2ccccc2Cl)n1)NC(=O)c1ccccc1 [Compound 9]
5,> 30,O=C(O)/C(=C/c1cccc(-c2cccnc2)c1)NC(=O)c1ccccc1 [Compound 11]
6,> 30,O=C(O)/C(=C/c1cnc(-c2ccccc2Cl)[nH]1)NC(=O)c1ccccc1 [Compound 12]
7,< 10,O=C(O)/C(=C/c1ccc(Oc2ccccc2Br)cc1)NC(=O)c1ccccc1 [Compound 13]
